We go through 11 compounds from US10975056B2 (GlaxoSmithKline Intellectual Property Development Limited, priority 2016, dated 2021).

Each structure is given as a SMILES string. Structures can show the parent of a compound that is named as a salt. Where only a bound is given, the exact number is not on record here.

One assay addresses DNMT1 (Homo sapiens, UniProt P26358). Description: DNMT1 biochemical activity, breaklight assay and/or SPA assay. As to conditions: binned activity in either the breaklight or the SPA assay; for IC50: read-out: DNMT1 BioChemical (pIC50 category) (converted).
Assay [1] relates to erythroid progenitor cells (EPCs). The experiment in a line: Fetal hemoglobin (HbF) ELISA in day 7 erythroid progenitor cells. Conditions: Homo sapiens, Erythroid progenitor cell, HbF ELISA, day 7 EPCs, 5 days; read-out: EPC ELISA (pEC50 category) (converted). It is filed as cell-based, human. Here is the method: Day 7 EPCs were cultured in duplicate plates with serially diluted Compound A for 5 days at 37° C. Wells were then analyzed for either induction of fetal hemoglobin (HbF,HbF ELISA) or cell growth (Cell Titer-Glo). In both cases, signal was normalized to vehicle-control treated cells.
Culture, Expansion, and Characterization of Day 7 Erythroid Progenitor Cells (EPC)s
All donors provided written informed consent for use of their samples, and the collection and use of the samples received institutional review board approval. All cryopreserved human bone marrow CD34+ cells used here were obtained from AlICells (Emeryville, Calif.) and were generally from different donors. The CD34+ cells were cultured to generate EPCs at day 7. Briefly, 1 million cells were cultured in 5% CO2, 5% O2 at 37° C. in H3000 Stemspan media (StemCell Technologies Vancouver, BC, Canada) supplemented with 2 mM L-glutamine, 40 μg/mL human low-density lipoproteins (StemCell Technologies), 10 ng/mL recombinant human (rh) interleukin IL-3 (R&D Systems, Minneapolis, Minn.), 100 ng/mL rh stem cell factor (R&D Systems), and 0.5 U/mL rh erythropoietin (Invitrogen, Grand Island, N.Y.). Cells were split and refed on day 4 with complete culture media described above and harvested on day 7 for evaluation of erythroid marker expression and assessment of γ-globin induction. Day 7 EPCs were then frozen in liquid nitrogen at 5 to 10 million cells/mL in 95% fetal bovine serum (FBS; Invitrogen) with 5% DMSO for subsequent use.
At the time of compound treatment, frozen day 7 EPCs prepared as described above were thawed, washed once and re-suspended in complete culture media as described above with the exception of an increase of rhEPO to 3 U/mL. Cells were counted and diluted to […] for plating into assay plates. Cells were then dispensed, at 30 μL per well with Multidrop™ Combi Reagent Dispenser (Thermo Scientific), into 384-well cell culture plates into which test compounds were pre-dispensed at 100 nL/well. Black Clear Bottom (Greiner Bio-One; 781090) and White (Greiner Bio-One; 781080) plates were used for ELISA and Cell Titer-Glo assays, respectively. The final cell density in the assays is 1,000 cells per well, with final compound concentrations between 33 nM (highest) and […] (lowest) for the 22-points serial dilution.
Fetal Hemoglobin (HbF) ELISA
Coating anti-HbF Ab (Bethyl Lab; cat. A80-136A) was diluted by 100-fold in the coating buffer (0.05 M carbonate-bicarbonate, pH 9.6), and then 20 μL/well was added to a 384-well MaxiSorp ELISA plate (Thermo Fisher; cat. 464718). After 1 hour incubation at room temperature, the plates were washed twice with ELISA washing buffer (50 mM Tris, 0.05% Tween 20, pH 8.0) with an EL406 plate washer (BioTek, Winooski, Vt.). Then, 40 μL/well of blocking buffer consisting of 50 mM Tris and 1% BSA (pH 8.0) was added to the plate and stored at 4° C. with cover sheet overnight, or until time of the assay. The coated ELISA plates were stable for up to 30 days at 4° C. On the day of assay, the plates were washed twice with ELISA washing buffer prior to addition of cell lysate.
After 5 days at 37° C. with 5% CO2 cell culture plates for ELISA assay were put into −80° C. freezer for a minimum of 2 hours. After thawing at room temperature, 30 μL of cell lysis buffer (Invitrogen; cat. FNN0011, supplemented with 1× protease inhibitor) was added to each well and the resulting cell lysate was mixed eight times with a Cybi-Well (Jena, Germany) pipettor. Following the mixing procedure, 20 μL/well of lysate was transferred to the coated ELISA plates described above followed by a 1 hour incubation at room temperature. The ELISA assay plates were washed three times with ELISA wash buffer. 20 μL per well of 1:75,000 to 100,000 diluted horseradish peroxidase (HRP) conjugate detection antiHbF Ab (Bethyl Labs; cat. A80-136P, diluted in 50 mM Tris [pH 8.0], 1% BSA, 0.05% Tween-20) was then added. […]
For orientation: In an ELISA, binding on a coated surface is turned into a signal by an enzyme label.

DNMT1, sequence (P26358 whole entry, looked up): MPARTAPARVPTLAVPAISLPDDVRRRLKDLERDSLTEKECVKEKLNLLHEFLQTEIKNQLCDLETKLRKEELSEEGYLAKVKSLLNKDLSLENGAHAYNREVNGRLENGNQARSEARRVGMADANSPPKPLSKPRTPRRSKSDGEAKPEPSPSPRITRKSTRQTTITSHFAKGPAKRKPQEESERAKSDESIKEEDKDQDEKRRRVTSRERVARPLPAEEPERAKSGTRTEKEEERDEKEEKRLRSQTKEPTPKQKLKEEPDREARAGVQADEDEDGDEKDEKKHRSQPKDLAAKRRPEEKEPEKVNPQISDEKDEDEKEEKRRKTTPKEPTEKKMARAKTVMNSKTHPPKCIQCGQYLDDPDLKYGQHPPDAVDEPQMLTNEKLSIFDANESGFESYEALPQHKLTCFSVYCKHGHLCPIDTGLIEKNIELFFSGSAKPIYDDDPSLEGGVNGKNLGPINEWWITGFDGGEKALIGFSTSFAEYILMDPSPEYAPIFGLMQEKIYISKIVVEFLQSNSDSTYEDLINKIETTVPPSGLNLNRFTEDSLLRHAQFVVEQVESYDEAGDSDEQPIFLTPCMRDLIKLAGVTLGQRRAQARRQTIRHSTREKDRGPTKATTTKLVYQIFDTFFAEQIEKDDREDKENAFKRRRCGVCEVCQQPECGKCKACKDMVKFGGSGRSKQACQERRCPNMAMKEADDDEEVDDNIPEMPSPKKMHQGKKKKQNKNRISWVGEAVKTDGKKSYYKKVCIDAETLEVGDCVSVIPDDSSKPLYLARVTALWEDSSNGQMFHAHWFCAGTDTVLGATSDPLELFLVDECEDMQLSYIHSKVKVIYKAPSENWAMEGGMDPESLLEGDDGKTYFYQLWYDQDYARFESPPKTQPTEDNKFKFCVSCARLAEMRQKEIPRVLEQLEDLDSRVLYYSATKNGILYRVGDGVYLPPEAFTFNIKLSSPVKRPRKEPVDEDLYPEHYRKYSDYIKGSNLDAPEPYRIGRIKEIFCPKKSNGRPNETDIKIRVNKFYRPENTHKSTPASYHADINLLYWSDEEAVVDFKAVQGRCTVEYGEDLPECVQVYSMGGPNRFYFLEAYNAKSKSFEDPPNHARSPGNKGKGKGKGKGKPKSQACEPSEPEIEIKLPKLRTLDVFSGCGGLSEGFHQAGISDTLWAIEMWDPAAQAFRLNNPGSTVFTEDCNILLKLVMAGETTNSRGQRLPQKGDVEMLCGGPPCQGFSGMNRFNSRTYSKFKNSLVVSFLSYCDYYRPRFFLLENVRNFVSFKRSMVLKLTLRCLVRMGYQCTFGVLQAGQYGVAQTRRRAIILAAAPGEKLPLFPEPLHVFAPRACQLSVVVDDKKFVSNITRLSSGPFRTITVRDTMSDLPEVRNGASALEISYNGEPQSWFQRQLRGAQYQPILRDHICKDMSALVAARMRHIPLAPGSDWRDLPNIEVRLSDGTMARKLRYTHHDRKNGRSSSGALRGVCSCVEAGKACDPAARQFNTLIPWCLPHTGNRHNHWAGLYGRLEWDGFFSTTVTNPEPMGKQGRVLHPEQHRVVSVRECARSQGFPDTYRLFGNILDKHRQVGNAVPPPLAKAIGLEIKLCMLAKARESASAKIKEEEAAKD

Turning to `CCc1c(C#N)c(SC(C(N)=O)c2ccccc2)nc(N2CCN(CCO)C(=O)C2)c1C#N` (stereo not shown) [Example 504, 2-((3,5-dicyano-4-ethyl-6-(4-(2-hydroxyethyl)-3-oxopiperazin-1-yl)pyridin-2-yl)thio)-2-phenylacetamide], the “DNMT1 BioChemical (pIC50 category)” value at DNMT1 is “D (Category D: ≥6.5)”. In assay [1], the EC50 is 1000 to 31600 nM.
`CCc1c(C#N)c(S[C@H](C(N)=O)c2ccc(F)cc2)nc(N2CCC(N(C)C)CC2)c1C#N` (single isomer, unassigned) [Example 465, 2-((3,5-dicyano-6-(4-(dimethylamino)piperidin-1-yl)-4-ethylpyridin-2-yl)thio)-2-(4-fluorophenyl)acetamide, Formic acid salt]: the “DNMT1 BioChemical (pIC50 category)” value at DNMT1 is reported as “D (Category D: ≥6.5)”. The EC50 in assay [1] was under 316 nM.
On to `CCc1c(C#N)c(SC(C(N)=O)c2ccccc2)nc(N(C)CC(C)(O)C(N)=O)c1C#N` (stereo not shown) [Example 261, 3-((6-((2-Amino-2-oxo-1-phenylethyl)thio)-3,5-dicyano-4-ethylpyridin-2-yl)(methyl)amino)-2-hydroxy-2-methylpropanamide], for which, at DNMT1, the IC50 is 316 to 1000 nM. Further, the EC50 in assay [1] was 1000 to 31600 nM.
In the case of `CCc1c(C#N)c(SCc2ccc(NC(=O)CO)cc2)nc(N2CCCN(C)CC2)c1C#N` [Example 301, N-(4-(((3,5-Dicyano-4-ethyl-6-(4-methyl-1,4-diazepan-1-yl)pyridin-2-yl)thio)methyl)phenyl)-2-hydroxyacetamide], the “DNMT1 BioChemical (pIC50 category)” value at DNMT1 is recorded as “D (Category D: ≥6.5)”. Moreover, the EC50 in assay [1] is 316 to 1000 nM.
Consider `CCc1c(C#N)c(SC(C(N)=O)c2ccccc2)nc(N2CCC(N3CCCC3)CC2)c1C#N` (stereo not shown) [Example 411, 2-((3,5-Dicyano-4-ethyl-6-(4-(pyrrolidin-1-yl)piperidin-1-yl)pyridin-2-yl)thio)-2-phenylacetamide], for which the “DNMT1 BioChemical (pIC50 category)” value at DNMT1 is reported as “D (Category D: ≥6.5)”. The EC50 in assay [1] was under 316 nM.
Taken in the same sequence, the figures for `CCc1c(C#N)c(SC(C(N)=O)c2ccccc2)nc(N(C)CCNCCOC)c1C#N` (stereo not shown) [Example 491, 2-((3,5-dicyano-4-ethyl-6-((2-((2-methoxyethyl)amino)ethyl)(methyl)amino)pyridin-2-yl)thio)-2-phenylacetamide] were “D (Category D: ≥6.5)” and under 316 nM.
In the case of `CCc1c(C#N)c(SC(C(N)=O)c2ccccc2)nc(N2CCC(NC(=O)OC(C)(C)C)C(F)(F)C2)c1C#N` (stereo not shown) [Example 383, tert-Butyl (1-(6-((2-amino-2-oxo-1-phenylethyl)thio)-3,5-dicyano-4-ethylpyridin-2-yl)-3,3-difluoropiperidin-4-yl) carbamate], at DNMT1, the “DNMT1 BioChemical (pIC50 category)” value is “D (Category D: ≥6.5)”. In addition, in assay [1], the EC50 is 316 to 1000 nM.
Turning to `CCc1c(C#N)c(SC(C(N)=O)c2ccccc2)nc(N(C)CCC(N)=O)c1C#N` (stereo not shown) [Example 230, 3-((6-(2-Amino-2-oxo-1-phenylethylthio)-3,5-dicyano-4-ethylpyridin-2-yl)(methyl)amino)propanamide], the IC50 at DNMT1 is 316 to 1000 nM. Besides, the EC50 in assay [1] was 1000 to 31600 nM.
On to `CCc1c(C#N)c(SCc2csc(NC(C)=O)n2)nc(N2CCCN(C)CC2)c1C#N` [Example 75, N-(4-(((3,5-Dicyano-4-ethyl-6-(4-methyl-1,4-diazepan-1-yl)pyridin-2-yl)thio)methyl)thiazol-2-yl)acetamide], for which the IC50 at DNMT1 was 316 to 1000 nM. For the same compound, in assay [1], the EC50 was over 31600 nM.
Taken in the same sequence, the figures for `CCc1c(C#N)c(SC(C(N)=O)c2cccc(C(=O)c3ccccc3)c2)nc(N2CCCN(CCO)CC2)c1C#N` (stereo not shown) [Example 244, 2-(3-Benzoylphenyl)-2-((3,5-dicyano-4-ethyl-6-(4-(2-hydroxyethyl)-1,4-diazepan-1-yl)pyridin-2-yl)thio)acetamide] were 316 to 1000 nM and under 316 nM.
As to `CCc1c(C#N)c(SC(C(N)=O)c2ccccc2)nc(N2CCC(N(C)CC(C)(C)C)CC2)c1C#N` (stereo not shown) [Example 551, 2-((3,5-dicyano-4-ethyl-6-(4-(methyl(neopentyl)amino)piperidin-1-yl)pyridin-2-yl)thio)-2-phenylacetamide], on DNMT1, the “DNMT1 BioChemical (pIC50 category)” value is listed as “D (Category D: ≥6.5)”. In addition, the EC50 in assay [1] is under 316 nM.
